Experimental data published in ChEMBL document CHEMBL1201862, “PubChem BioAssay data set” (2004).
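The compound was tested at five concentrations on cells cultured in 96-well plates, with a 48-hour exposure period. GI50 is the concentration that inhibits growth by half.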 Activity calls are given as the source filed them. Cut-off read from the data, not from the text of the source: active = GI50 up to about 1.1 µM and inactive = higher.

Experiments:
Assay in all cases: NCI tumour cell line growth inhibition, 48 h
TK-10 = tested on: TK-10
SF-268 = tested on: SF-268
MOLT-4 = tested on: MOLT-4
CAKI-1 = tested on: CAKI-1
CCRF-CEM = tested on: CCRF-CEM
MDA-N = tested on: MDA-N
NCI-H226 = tested on: NCI-H226
UACC-62 = tested on: UACC-62
RXF 393 = tested on: RXF 393
OVCAR-8 = tested on: OVCAR-8
HCT-116 = tested on: HCT-116
SK-OV-3 = tested on: SK-OV-3
SK-MEL-2 = tested on: SK-MEL-2
HT-29 = tested on: HT-29
Malme-3M = tested on: Malme-3M
HCT-15 = tested on: HCT-15
SR = tested on: SR
RPMI-8226 = tested on: RPMI-8226
SF-539 = tested on: SF-539
Hs-578T = tested on: Hs-578T
IGROV-1 = tested on: IGROV-1
PC-3 = tested on: PC-3
T47D = tested on: T47D
UACC-257 = tested on: UACC-257
ACHN = tested on: ACHN
SK-MEL-5 = tested on: SK-MEL-5
UO-31 = tested on: UO-31
DU-145 = tested on: DU-145
SN12C = tested on: SN12C
NCI-H23 = tested on: NCI-H23
HOP-62 = tested on: HOP-62
HOP-92 = tested on: HOP-92
MDA-MB-231 = tested on: MDA-MB-231
BT-549 = tested on: BT-549
MDA-MB-435 = tested on: MDA-MB-435
K562 = tested on: K562
786-0 = tested on: 786-0
HCC 2998 = tested on: HCC 2998
MCF7 = tested on: MCF7
M14 = tested on: M14
SK-MEL-28 = tested on: SK-MEL-28
A498 = tested on: A498
NCI-H522 = tested on: NCI-H522
OVCAR-4 = tested on: OVCAR-4
SF-295 = tested on: SF-295
OVCAR-5 = tested on: OVCAR-5
OVCAR-3 = tested on: OVCAR-3
KM12 = tested on: KM12
SW-620 = tested on: SW-620
SNB-75 = tested on: SNB-75
A549 = tested on: A549
COLO 205 = tested on: COLO 205
NCI/ADR-RES = tested on: NCI/ADR-RES
NCI-H460 = tested on: NCI-H460
U-251 = tested on: U-251
LOX IMVI = tested on: LOX IMVI
HL-60 = tested on: HL-60
SNB-19 = tested on: SNB-19

With `COc1ccc(C2CC(c3ccc4ccccc4c3O)=NN2C(C)=O)cc1OC` (configuration not stated) the GI50 (TK-10) was > 100 µM (inactive), the GI50 (SF-268) was 61.7 µM (inactive) and the GI50 (MOLT-4) was 55.1 µM (inactive). For the same molecule, the GI50 (CAKI-1) was > 100 µM (inactive), the GI50 (CCRF-CEM) was 18.8 µM (inactive) and the GI50 (MDA-N) was > 100 µM (inactive). The GI50 (NCI-H226) was > 100 µM (inactive), the GI50 (UACC-62) was 75.9 µM (inactive) and the GI50 (RXF 393) was > 100 µM (inactive). The GI50 (OVCAR-8) was > 100 µM (inactive), the GI50 (HCT-116) was > 100 µM (inactive) and the GI50 (SK-OV-3) was > 100 µM (inactive). For the same molecule, the GI50 (SK-MEL-2) was > 100 µM (inactive), the GI50 (HT-29) was > 100 µM (inactive) and the GI50 (Malme-3M) was > 100 µM (inactive). The GI50 (HCT-15) was > 100 µM, the GI50 (SR) was 19.1 µM (inactive) and the GI50 (RPMI-8226) was > 100 µM (inactive). The GI50 (SF-539) was > 100 µM (inactive), the GI50 (Hs-578T) was 71.1 µM (inactive) and the GI50 (IGROV-1) was > 100 µM (inactive). For the same molecule, the GI50 (PC-3) was > 100 µM (inactive), the GI50 (T47D) was > 100 µM (inactive) and the GI50 (UACC-257) was > 100 µM (inactive). The GI50 (ACHN) was > 100 µM (inactive), the GI50 (SK-MEL-5) was > 100 µM (inactive) and the GI50 (UO-31) was > 100 µM (inactive). The GI50 (DU-145) was > 100 µM (inactive), the GI50 (SN12C) was > 100 µM (inactive) and the GI50 (NCI-H23) was > 100 µM (inactive). The GI50 (HOP-62) was > 100 µM (inactive), the GI50 (HOP-92) was > 100 µM (inactive) and the GI50 (MDA-MB-231) was > 100 µM (inactive). The GI50 (BT-549) was > 100 µM (inactive), the GI50 (MDA-MB-435) was > 100 µM (inactive) and the GI50 (K562) was 78.5 µM (inactive). The GI50 (786-0) was > 100 µM (inactive), the GI50 (HCC 2998) was > 100 µM (inactive) and the GI50 (MCF7) was > 100 µM (inactive). For the same molecule, the GI50 (M14) was > 100 µM (inactive), the GI50 (SK-MEL-28) was > 100 µM (inactive) and the GI50 (A498) was > 100 µM (inactive). For the same molecule, the GI50 (NCI-H522) was > 100 µM (inactive), the GI50 (OVCAR-4) was > 100 µM (inactive) and the GI50 (SF-295) was > 100 µM (inactive). The GI50 (OVCAR-5) was > 100 µM (inactive), the GI50 (OVCAR-3) was > 100 µM (inactive) and the GI50 (KM12) was > 100 µM (inactive). For the same molecule, the GI50 (SW-620) was > 100 µM (inactive), the GI50 (SNB-75) was > 100 µM (inactive) and the GI50 (A549) was > 100 µM (inactive). The GI50 (COLO 205) was > 100 µM (inactive), the GI50 (NCI/ADR-RES) was > 100 µM (inactive) and the GI50 (NCI-H460) was > 100 µM (inactive). For the same molecule, the GI50 (U-251) was > 100 µM (inactive).

In the case of `CN/C(=N\c1ccc(OC)c2ccccc12)SC`, the GI50 (TK-10) was > 10 µM (inactive), the GI50 (LOX IMVI) was > 10 µM (inactive) and the GI50 (SF-268) was > 10 µM (inactive). The GI50 (MOLT-4) was > 10 µM (inactive), the GI50 (HL-60) was > 10 µM (inactive) and the GI50 (CAKI-1) was > 10 µM (inactive). The GI50 (CCRF-CEM) was > 10 µM (inactive), the GI50 (MDA-N) was > 10 µM (inactive) and the GI50 (UACC-62) was > 10 µM (inactive). The GI50 (OVCAR-8) was > 10 µM (inactive), the GI50 (HCT-116) was > 10 µM (inactive) and the GI50 (SK-OV-3) was > 10 µM (inactive). For the same molecule, the GI50 (HT-29) was > 10 µM (inactive), the GI50 (Malme-3M) was > 10 µM (inactive) and the GI50 (HCT-15) was > 10 µM. For the same molecule, the GI50 (SR) was > 10 µM (inactive), the GI50 (RPMI-8226) was > 10 µM (inactive) and the GI50 (SF-539) was > 10 µM (inactive). For the same molecule, the GI50 (Hs-578T) was > 10 µM (inactive), the GI50 (IGROV-1) was > 10 µM (inactive) and the GI50 (PC-3) was > 10 µM (inactive). The GI50 (T47D) was > 10 µM (inactive), the GI50 (UACC-257) was > 10 µM (inactive) and the GI50 (ACHN) was > 10 µM (inactive). For the same molecule, the GI50 (SK-MEL-5) was > 10 µM (inactive), the GI50 (DU-145) was > 10 µM (inactive) and the GI50 (SN12C) was > 10 µM (inactive). For the same molecule, the GI50 (NCI-H23) was > 10 µM (inactive), the GI50 (HOP-62) was > 10 µM (inactive) and the GI50 (HOP-92) was > 10 µM (inactive). The GI50 (MDA-MB-231) was > 10 µM (inactive), the GI50 (BT-549) was > 10 µM (inactive) and the GI50 (MDA-MB-435) was > 10 µM (inactive). The GI50 (K562) was > 10 µM (inactive), the GI50 (786-0) was > 10 µM (inactive) and the GI50 (HCC 2998) was > 10 µM (inactive). The GI50 (MCF7) was > 10 µM (inactive), the GI50 (M14) was > 10 µM (inactive) and the GI50 (SK-MEL-28) was > 10 µM (inactive). For the same molecule, the GI50 (NCI-H522) was > 10 µM (inactive), the GI50 (OVCAR-4) was > 10 µM (inactive) and the GI50 (SF-295) was 7.43 µM (inactive). The GI50 (OVCAR-5) was 2.86 µM (inactive), the GI50 (OVCAR-3) was > 10 µM (inactive) and the GI50 (SNB-19) was > 10 µM (inactive). The GI50 (KM12) was > 10 µM (inactive), the GI50 (SW-620) was > 10 µM (inactive) and the GI50 (SNB-75) was > 10 µM (inactive). The GI50 (A549) was > 10 µM (inactive), the GI50 (COLO 205) was > 10 µM (inactive) and the GI50 (NCI/ADR-RES) was > 10 µM (inactive). For the same molecule, the GI50 (U-251) was > 10 µM (inactive).
